In patent US9738634B2, “Heterocyclic amide compound and herbicide” (SYNGENTA PARTICIPATIONS AG, priority 2013, dated 2017):

Key:
Format in all cases: in vivo
barnyard grass [1] = test: Test Example 2: weedkilling efficacy, growth period weed treatment in the submerged state; A: barnyard grass
How it was run: (§1)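 First, alluvial soil in pots is flooded to 4 cm and mixed seed is sown. Next, plants grow in a greenhouse at 25 to 30° C until the 1-2 leaf stage. Then diluted emulsion is applied onto the water surface at the given g/ha rate, and injury is assessed after 3 weeks.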

fig-leafed goosefoot = test: Test Example 3: weedkilling efficacy through soil treatment; M: fig-leafed goosefoot; details: soil treatment
How it was run: (§2)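 Crop and weed responses were judged three weeks after a uniform surface spray of the water-diluted emulsion at the given g/ha rate. Seeds sat beneath about 1.5 cm of sterilized diluvial soil, and boxes stood in a greenhouse at 25 to 30° C.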

common wind-grass = test: Test Example 3: weedkilling efficacy through soil treatment; J: common wind-grass; details: soil treatment
How it was run: as §2

oval-leafed pondweed [2] = test: Test Example 2: weedkilling efficacy, growth period weed treatment in the submerged state; C: oval-leafed pondweed
How it was run: as §1

beet = test: Test Example 3: soil treatment, effect on crop; f: beet; details: soil treatment
How it was run: as §2

black-grass = test: Test Example 3: weedkilling efficacy through soil treatment; H: black-grass; details: soil treatment
How it was run: as §2

bulrush [3] = test: Test Example 2: weedkilling efficacy, growth period weed treatment in the submerged state; B: bulrush
How it was run: as §1

Italian ryegrass = test: Test Example 3: weedkilling efficacy through soil treatment; I: Italian ryegrass; details: soil treatment
How it was run: as §2

bulrush [4] = test: Test Example 1: weedkilling efficacy, preemergent weed treatment in the submerged state; B: bulrush
How it was run: (§3)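 Alluvial soil in Wagner pots flooded to 4 cm; barnyard grass, bulrush and oval-leafed pondweed seeds sown, then 2.5-leaf rice seedlings transplanted. Same day, emulsified compound diluted in water to set g/ha dosages and applied to water surface; greenhouse 25–30 °C, effect scored by criteria after 3 weeks.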

barnyard grass [5] = test: Test Example 3: weedkilling efficacy through soil treatment; F: barnyard grass; details: soil treatment
How it was run: as §2

birds-eye speedwell = test: Test Example 3: weedkilling efficacy through soil treatment; p: birds-eye speedwell; details: soil treatment
How it was run: as §2

catchweed = test: Test Example 3: weedkilling efficacy through soil treatment; O: catchweed; details: soil treatment
How it was run: as §2

barnyard grass [6] = test: Test Example 1: weedkilling efficacy, preemergent weed treatment in the submerged state; A: barnyard grass
How it was run: as §3

rapeseed = test: Test Example 3: soil treatment, effect on crop; g: rapeseed; details: soil treatment
How it was run: as §2

wheat = test: Test Example 3: soil treatment, effect on crop; e: wheat; details: soil treatment
How it was run: as §2

redroot pigweed = test: Test Example 3: weedkilling efficacy through soil treatment; L: redroot pigweed; details: soil treatment
How it was run: as §2

wild oat = test: Test Example 3: weedkilling efficacy through soil treatment; G: wild oat; details: soil treatment
How it was run: as §2

directly sown rice = test: Test Example 3: soil treatment, effect on crop; b: directly sown rice; details: soil treatment
How it was run: as §2

corn = test: Test Example 3: soil treatment, effect on crop; c: corn; details: soil treatment
How it was run: as §2

green foxtail = test: Test Example 3: weedkilling efficacy through soil treatment; E: green foxtail; details: soil treatment
How it was run: as §2

transplanted rice = test: Test Example 1: preemergent weed treatment in the submerged state, effect on crop; a: transplanted rice
How it was run: as §3

soybean = test: Test Example 3: soil treatment, effect on crop; d: soybean; details: soil treatment
How it was run: as §2

oval-leafed pondweed [7] = test: Test Example 1: weedkilling efficacy, preemergent weed treatment in the submerged state; C: oval-leafed pondweed
How it was run: as §3

crabgrass = test: Test Example 3: weedkilling efficacy through soil treatment; D: crabgrass; details: soil treatment
How it was run: as §2

Indian mallow = test: Test Example 3: weedkilling efficacy through soil treatment; K: Indian mallow; details: soil treatment
How it was run: as §2

chickweed = test: Test Example 3: weedkilling efficacy through soil treatment; N: chickweed; details: soil treatment
How it was run: as §2

Row | Compound | M: fig-leafed goosefoot, weedkilling efficacy grade (fig-leafed goosefoot; treatment dosage 320 g/ha) | J: common wind-grass, weedkilling efficacy grade (common wind-grass; treatment dosage 320 g/ha) | f: beet, effect on crop grade (beet; treatment dosage 320 g/ha) | H: black-grass, weedkilling efficacy grade (black-grass; treatment dosage 320 g/ha) | I: Italian ryegrass, weedkilling efficacy grade (Italian ryegrass; treatment dosage 320 g/ha) | F: barnyard grass, weedkilling efficacy grade (barnyard grass [5]; treatment dosage 320 g/ha) | P: birds-eye speedwell, weedkilling efficacy grade (birds-eye speedwell; treatment dosage 320 g/ha) | O: catchweed, weedkilling efficacy grade (catchweed; treatment dosage 320 g/ha) | g: rapeseed, effect on crop grade (rapeseed; treatment dosage 320 g/ha) | e: wheat, effect on crop grade (wheat; treatment dosage 320 g/ha) | L: redroot pigweed, weedkilling efficacy grade (redroot pigweed; treatment dosage 320 g/ha) | G: wild oat, weedkilling efficacy grade (wild oat; treatment dosage 320 g/ha) | b: directly sown rice, effect on crop grade (directly sown rice; treatment dosage 320 g/ha) | c: corn, effect on crop grade (corn; treatment dosage 320 g/ha) | E: green foxtail, weedkilling efficacy grade (green foxtail; treatment dosage 320 g/ha) | D: crabgrass, weedkilling efficacy grade (crabgrass; treatment dosage 320 g/ha) | K: Indian mallow, weedkilling efficacy grade (Indian mallow; treatment dosage 320 g/ha) | N: chickweed, weedkilling efficacy grade (chickweed; treatment dosage 320 g/ha) | further results
1 | CC(C)(C(=O)Nc1cc(Cl)cc(F)n1)N1COCN(c2ccccc2)C1=O [A-2-15] | 4 (weed kill ratio 70% or more, less than 90%) | 5 (weed kill ratio 90% or more, (practically complete withering)) | 3 (weed kill ratio 40% or more, less than 70%) | 5 (weed kill ratio 90% or more, (practically complete withering)) | 5 (weed kill ratio 90% or more, (practically complete withering)) | 5 (weed kill ratio 90% or more, (practically complete withering)) | 5 (weed kill ratio 90% or more, (practically complete withering)) | 5 (weed kill ratio 90% or more, (practically complete withering)) | 4 (weed kill ratio 70% or more, less than 90%) | 4 (weed kill ratio 70% or more, less than 90%) | 4 (weed kill ratio 70% or more, less than 90%) | 5 (weed kill ratio 90% or more, (practically complete withering)) | 5 (weed kill ratio 90% or more, (practically complete withering)) | 4 (weed kill ratio 70% or more, less than 90%) | 5 (weed kill ratio 90% or more, (practically complete withering)) | 5 (weed kill ratio 90% or more, (practically complete withering)) | 4 (weed kill ratio 70% or more, less than 90%) | 5 (weed kill ratio 90% or more, (practically complete withering)) | A (barnyard grass) weedkilling efficacy grade (barnyard grass [1]; treatment dosage 280 g/ha): 5 (weed kill ratio 90% or more, (practically complete withering)); C (oval-leafed pondweed) weedkilling efficacy grade (oval-leafed pondweed [2]; treatment dosage 280 g/ha): 5 (weed kill ratio 90% or more, (practically complete withering)); B (bulrush) weedkilling efficacy grade (bulrush [3]; treatment dosage 280 g/ha): 5 (weed kill ratio 90% or more, (practically complete withering)); B: bulrush, weed kill grade (bulrush [4]; treatment dosage 280 g/ha): 5 (weed kill ratio 90% or more, (practically complete withering)); A: barnyard grass, weed kill grade (barnyard grass [6]; treatment dosage 280 g/ha): 5 (weed kill ratio 90% or more, (practically complete withering)); a: transplanted rice, effect on crop grade (transplanted rice; treatment dosage 280 g/ha): 4 (weed kill ratio 70% or more, less than 90%); d: soybean, effect on crop grade (soybean; treatment dosage 320 g/ha): 3 (weed kill ratio 40% or more, less than 70%); C: oval-leafed pondweed, weed kill grade (oval-leafed pondweed [7]; treatment dosage 280 g/ha): 5 (weed kill ratio 90% or more, (practically complete withering))
2 | CC(C)(C(=O)Nc1cc(Cl)cc(C2CC2)n1)N1COCN(c2ccccc2)C1=O [A-2-29] | – | – | – | – | – | – | – | – | – | – | – | – | – | – | – | – | – | – | M: fig-leafed goosefoot, weedkilling efficacy grade (fig-leafed goosefoot; treatment dosage 230 g/ha): 3 (weed kill ratio 40% or more, less than 70%); J: common wind-grass, weedkilling efficacy grade (common wind-grass; treatment dosage 230 g/ha): 5 (weed kill ratio 90% or more, (practically complete withering)); f: beet, effect on crop grade (beet; treatment dosage 230 g/ha): 3 (weed kill ratio 40% or more, less than 70%); H: black-grass, weedkilling efficacy grade (black-grass; treatment dosage 230 g/ha): 5 (weed kill ratio 90% or more, (practically complete withering)); I: Italian ryegrass, weedkilling efficacy grade (Italian ryegrass; treatment dosage 230 g/ha): 5 (weed kill ratio 90% or more, (practically complete withering)); F: barnyard grass, weedkilling efficacy grade (barnyard grass [5]; treatment dosage 230 g/ha): 5 (weed kill ratio 90% or more, (practically complete withering)); P: birds-eye speedwell, weedkilling efficacy grade (birds-eye speedwell; treatment dosage 230 g/ha): 5 (weed kill ratio 90% or more, (practically complete withering)); O: catchweed, weedkilling efficacy grade (catchweed; treatment dosage 230 g/ha): 3 (weed kill ratio 40% or more, less than 70%); g: rapeseed, effect on crop grade (rapeseed; treatment dosage 230 g/ha): 4 (weed kill ratio 70% or more, less than 90%); e: wheat, effect on crop grade (wheat; treatment dosage 230 g/ha): 0 (weed kill ratio 5% or less (practically no effect)); L: redroot pigweed, weedkilling efficacy grade (redroot pigweed; treatment dosage 230 g/ha): 2 (weed kill ratio 20% or more, less than 40%); G: wild oat, weedkilling efficacy grade (wild oat; treatment dosage 230 g/ha): 3 (weed kill ratio 40% or more, less than 70%); b: directly sown rice, effect on crop grade (directly sown rice; treatment dosage 230 g/ha): 1 (weed kill ratio 5% or more, less than 20%); c: corn, effect on crop grade (corn; treatment dosage 230 g/ha): 1 (weed kill ratio 5% or more, less than 20%); E: green foxtail, weedkilling efficacy grade (green foxtail; treatment dosage 230 g/ha): 5 (weed kill ratio 90% or more, (practically complete withering)); d: soybean, effect on crop grade (soybean; treatment dosage 230 g/ha): 0 (weed kill ratio 5% or less (practically no effect)); D: crabgrass, weedkilling efficacy grade (crabgrass; treatment dosage 230 g/ha): 5 (weed kill ratio 90% or more, (practically complete withering)); K: Indian mallow, weedkilling efficacy grade (Indian mallow; treatment dosage 230 g/ha): 3 (weed kill ratio 40% or more, less than 70%); N: chickweed, weedkilling efficacy grade (chickweed; treatment dosage 230 g/ha): 4 (weed kill ratio 70% or more, less than 90%)
3 | CC(C)(C(=O)Nc1cc(Br)cc(F)n1)N1COCN(c2ccccc2)C1=O [A-2-19] | 4 (weed kill ratio 70% or more, less than 90%) | 5 (weed kill ratio 90% or more, (practically complete withering)) | 4 (weed kill ratio 70% or more, less than 90%) | 5 (weed kill ratio 90% or more, (practically complete withering)) | 5 (weed kill ratio 90% or more, (practically complete withering)) | 5 (weed kill ratio 90% or more, (practically complete withering)) | 4 (weed kill ratio 70% or more, less than 90%) | 4 (weed kill ratio 70% or more, less than 90%) | 5 (weed kill ratio 90% or more, (practically complete withering)) | 2 (weed kill ratio 20% or more, less than 40%) | 0 (weed kill ratio 5% or less (practically no effect)) | 5 (weed kill ratio 90% or more, (practically complete withering)) | 0 (weed kill ratio 5% or less (practically no effect)) | 2 (weed kill ratio 20% or more, less than 40%) | 5 (weed kill ratio 90% or more, (practically complete withering)) | 5 (weed kill ratio 90% or more, (practically complete withering)) | 0 (weed kill ratio 5% or less (practically no effect)) | 5 (weed kill ratio 90% or more, (practically complete withering)) | A (barnyard grass) weedkilling efficacy grade (barnyard grass [1]; treatment dosage 320 g/ha): 5 (weed kill ratio 90% or more, (practically complete withering)); C (oval-leafed pondweed) weedkilling efficacy grade (oval-leafed pondweed [2]; treatment dosage 320 g/ha): 5 (weed kill ratio 90% or more, (practically complete withering)); B (bulrush) weedkilling efficacy grade (bulrush [3]; treatment dosage 320 g/ha): 5 (weed kill ratio 90% or more, (practically complete withering)); B: bulrush, weed kill grade (bulrush [4]; treatment dosage 320 g/ha): 5 (weed kill ratio 90% or more, (practically complete withering)); A: barnyard grass, weed kill grade (barnyard grass [6]; treatment dosage 320 g/ha): 5 (weed kill ratio 90% or more, (practically complete withering)); a: transplanted rice, effect on crop grade (transplanted rice; treatment dosage 320 g/ha): 3 (weed kill ratio 40% or more, less than 70%); C: oval-leafed pondweed, weed kill grade (oval-leafed pondweed [7]; treatment dosage 320 g/ha): 5 (weed kill ratio 90% or more, (practically complete withering))
